Experimental data as given in patent US8309734B2 (Hoffmann-La Roche Inc., priority 2008, dated 2012).

target: T1, human GPBAR1 receptor (Homo sapiens, UniProt Q8TDU6); experiment: functional cAMP assay in CHO-dhfr(minus) cells expressing human GPBAR1 receptors; type: cell-based; settings: cAMP increase (TR-FRET) in CHO-dhfr(minus) cells expressing human GPBAR1; compounds incubated 30 min at 30° C.
T1 construct: expressed in transfected cells
T1 sequence (Q8TDU6 1-330): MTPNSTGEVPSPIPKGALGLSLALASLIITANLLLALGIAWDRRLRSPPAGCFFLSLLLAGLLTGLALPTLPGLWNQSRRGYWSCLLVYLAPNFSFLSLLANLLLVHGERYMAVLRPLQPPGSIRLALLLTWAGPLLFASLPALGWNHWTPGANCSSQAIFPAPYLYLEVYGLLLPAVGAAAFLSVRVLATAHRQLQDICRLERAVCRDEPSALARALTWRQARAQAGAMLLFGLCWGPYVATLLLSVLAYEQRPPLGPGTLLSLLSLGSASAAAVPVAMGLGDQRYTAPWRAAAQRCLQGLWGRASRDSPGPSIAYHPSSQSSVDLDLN

EC50	SMILES
625 nM	CC(C)c1cccc(Oc2ncccc2C(=O)N2CCCc3ccccc32)c1 [Example 19, (3,4-Dihydro-2H-quinolin-1-yl)-[2-(3-isopropyl-phenoxy)-pyridin-3-yl]-methanone]
259 nM	CC(=O)OCCN1CCN(C(=O)c2cccnc2Oc2cc(Cl)ccc2Cl)c2ccccc21 [Example 140, Acetic acid 2-{4-[2-(2,5-dichloro-phenoxy)-pyridine-3-carbonyl]-3,4-dihydro-2H-quinoxalin-1-yl}-ethyl ester]
28 nM	O=C(c1cccnc1Oc1cc(Cl)ccc1Cl)N1CCCc2cc(F)ccc21 [Example 37, [2-(2,5-Dichloro-phenoxy)-pyridin-3-yl]-(6-fluoro-3,4-dihydro-2H-quinolin-1-yl)-methanone]
128 nM	O=C(c1cccnc1Oc1ccc(F)c(Cl)c1)N1CCCc2ncccc21 [Example 78, [2-(3-Chloro-4-fluoro-phenoxy)-pyridin-3-yl]-(3,4-dihydro-2H-[1,5]naphthyridin-1-yl)-methanone]
425 nM	Cc1ccccc1N(C)C(=O)c1ccncc1Oc1ccc(F)c(Cl)c1 [Example 106, 3-(3-Chloro-4-fluoro-phenoxy)-N-methyl-N-o-tolyl-isonicotinamide]
1530 nM	O=C(c1cccnc1Oc1cc(Cl)ccc1Cl)N1CCN(c2ccccc2)c2ccccc21 [Example 74, [2-(2,5-Dichloro-phenoxy)-pyridin-3-yl]-(4-phenyl-3,4-dihydro-2H-quinoxalin-1-yl)-methanone]
71 nM	O=C(O)C1CCCN1C(=O)CCc1cc(Cl)c(Oc2ncccc2C(=O)N2CCN(C3CC3)c3ccccc32)cc1Cl (stereo not shown) [Example 180, 1-(3-{2,5-Dichloro-4-[3-(4-cyclopropyl-3,4-dihydro-2H-quinoxaline-1-carbonyl)-pyridin-2-yloxy]-phenyl}-propionyl)-pyrrolidine-2-carboxylic acid]
565 nM	O=C(c1cc(F)cnc1Oc1cc(Cl)ccc1Cl)N1CCN(CCC(F)(F)F)c2ccccc21 [Example 153, [2-(2,5-Dichloro-phenoxy)-5-fluoro-pyridin-3-yl]-[4-(3,3,3-trifluoro-propyl)-3,4-dihydro-2H-quinoxalin-1-yl]-methanone]
1550 nM	COc1cccc(OC)c1N(C)C(=O)c1cccnc1Oc1cc(Cl)ccc1Cl [Example 60, 2-(2,5-Dichloro-phenoxy)-N-(2,6-dimethoxy-phenyl)-N-methyl-nicotinamide]
321 nM	CN(C(=O)c1cccnc1Oc1cc(Cl)ccc1Cl)c1ccccc1C1CC1 [Example 131, N-(2-Cyclopropyl-phenyl)-2-(2,5-dichloro-phenoxy)-N-methyl-nicotinamide]
144 nM	O=C(c1ccc(C(F)(F)F)nc1Oc1cc(Cl)ccc1Cl)N1CCCc2ccccc21 [Example 29, [2-(2,5-Dichloro-phenoxy)-6-trifluoromethyl-pyridin-3-yl]-(3,4-dihydro-2H-quinolin-1-yl)-methanone]
562 nM	COc1ncccc1N(C)C(=O)c1ccncc1Oc1ccc(F)c(Cl)c1 [Example 109, 3-(3-Chloro-4-fluoro-phenoxy)-N-(2-methoxy-pyridin-3-yl)-N-methyl-isonicotinamide]
102 nM	O=C(c1ccccc1Oc1cc(Cl)ccc1Cl)N1CCCc2cc(F)c(F)cc21 [Example 111, [2-(2,5-Dichloro-phenoxy)-phenyl]-(6,7-difluoro-3,4-dihydro-2H-quinolin-1-yl)-methanone]
176 nM	O=C(c1cccnc1Oc1cc(Cl)cc(Cl)c1)N1CCCc2ccccc21 [Example 17, [2-(3,5-Dichloro-phenoxy)-pyridin-3-yl]-(3,4-dihydro-2H-quinolin-1-yl)-methanone]
59 nM	Cc1cccc(Cl)c1N(C)C(=O)c1cccnc1Oc1cc(Cl)ccc1Cl [Example 51, N-(2-Chloro-6-methyl-phenyl)-2-(2,5-dichloro-phenoxy)-N-methyl-nicotinamide]
163 nM	O=C(c1cccnc1Oc1cc(Cl)ccc1Cl)N1CCOc2ccc(F)cc21 [Example 72, [2-(2,5-Dichloro-phenoxy)-pyridin-3-yl]-(6-fluoro-2,3-dihydro-benzo[1,4]oxazin-4-yl)-methanone]
